Here are results for two compounds from US9433686B2, “Methods for treating castration resistant prostate cancer and metastasis by reducing B-cell number and/or function” (The Regents of the University of California, priority 2011, dated 2016).

One experiment relates to myc-CaP tumors. Put plainly: CR-CaP re-growth (tumor volume) of s.c. myc-CaP allografts after castration. Particulars: castrated mice bearing s.c. myc-CaP tumors. Type of experiment: in vivo, FVB mice. The protocol:
FIG. 4. IKKβ-dependent lymphotoxin production by tumor-infiltrating B cells stimulates IKKα-dependent androgen-free survival. A. RNA from splenic B cells of Ikkβ^F/F and Ikkβ^Δ/Δ mice was analyzed for LTα and LTβ expression as above. Results are averages±s.d. (n=3). B. Lethally irradiated FVB males were reconstituted with BM from B-Ltβ^−/− or T-Ltβ^−/− mice (n=6 per group). After 8 weeks, myc-CaP tumors were established, mice were castrated and tumor volume was measured as above. Results are averages±s.e.m. C. FVB mice (n=6 each group) bearing myc-CaP tumors were castrated and given hIgG or LTβR-Ig (100 μg) every 5 days, starting 4 days before castration. Tumor volume was measured as above. Results are averages±s.e.m. […] Mice were castrated and tumor volume was measured. […] After 6 hrs, the cells were cultured with or without flutamide (10 μM) in the absence or presence of LTα2β1, and cell number was determined. […] After 12 hrs, cells were stimulated for 1 hr with LTα2β1, collected, divided into cytosolic (C) and nuclear (N) fractions and IKKα and histone H3 distribution was determined. In A, B, C, D and E, P values were determined and are indicated as above.
FIG. 8. […] Five months later, mice were sacrificed and prostate tumor weight and incidence of lymph node, lung and liver metastases were determined. […] Tumor volume in above mice was measured every 2-3 days. […] Tumor volume was measured as above. […]

Experiment [1] deals with STAT3. Put plainly: STAT3 phosphorylation in myc-CaP tumors after castration (immunohistochemistry). Type of experiment: in vivo, FVB mice. Particulars: phospho-STAT3 staining. The source says: FIG. 14. STAT3 activation and its role in CR-CaP emergence. A,B WT+Ikkβ^F/F and WT+Ikkβ^Δ/Δ radiation chimeras (n=10 each group) bearing myc-CaP allografts were established as above and injected with poly(IC) to delete IKKβ[…] in BMDC before castration or sham operation. After one month, mice were sacrificed for analysis. A. Lymphocytes were isolated from indicated tissues and analyzed for IKKβ expression. B. Tumor samples were immunoblotted to determine expression and phosphorylation of indicated signaling proteins. C,D FVB mice bearing myc-CaP tumors were castrated. Starting one day before castration, the mice (n=10 per group) were injected twice daily with vehicle or AG490, an inhibitor of STAT3 phosphorylation. C. One week after castration, tumors were collected, paraffin-embedded, sectioned and stained with phospho-STAT3 antibody. D. Tumor volume was measured every 2-3 days as above. Results are averages±s.e.m. P values were determined and are indicated as above.
FIG. 23. LTβ is required for IKKα nuclear localization and STAT3 phosphorylation. Mice carrying Myc-CaP tumors were castrated and treated with vehicle or LTβR-Ig as described above. Paraffin-embedded sections were analyzed for IKKα nuclear localization and STAT3 phosphorylation.
Mouse prostate and CaP tissues and dissected metastatic tumors were immersed in 10% neutral buffered formalin before sectioning and paraffin embedding. […]

The next experiment deals with IKK. The experiment is described as follows: IκBα phosphorylation in PMA-stimulated Myc-CaP cells. Conditions: 1 hr pre-treatment, AG490 100 μM, PMA 10 ng/ml 10 min. Type of experiment: cell-based, mouse. The method, then: (§1) FIG. 15. Selectivity of IKKβ and STAT3 phosphorylation inhibitors. A. Myc-CaP cells were cultured to 60% confluency and pre-treated for 1 hr with AG490 (100 μM) or ML120B (20 μM), followed by stimulation with PMA (10 ng/ml) for 10 min. Cells were collected and IκBα phosphorylation was analyzed. B. Myc-CaP cells were pre-treated with AG490 or ML120B and after 1 hr, were stimulated with IL-6 (20 ng/ml) for 30 min. Cells were collected and STAT3 phosphorylation was analyzed by immunoblotting.
(§2) Total tissue RNA was prepared using RNAeasy (Qiagen). Quantitative PCR was performed as described^38. Cells and tumors were lysed and analyzed by SDS-polyacrylamide gel electrophoresis and immunoblotting^38 with antibodies to histone H3, α-tubulin, STAT3 (Santa Cruz Biotechnology), ERK, phospho-ERK, AKT, phospho-AKT, phospho-STAT3 (Cell Signaling). Nuclear extracts were prepared and analyzed for NF-κB DNA-binding as described^39.

Experiment [2] deals with STAT3. The experiment is described as follows: STAT3 phosphorylation in IL-6-stimulated Myc-CaP cells (immunoblotting). Type of experiment: cell-based, mouse. Particulars: 1 hr pre-treatment, IL-6 20 ng/ml 30 min. The protocol: as §1, §2

Turning to `N#C/C(=C/c1ccc(O)c(O)c1)C(=O)NCc1ccccc1` [A490], the “CR-CaP growth / appearance after castration (tumor volume)” value in the experiment on myc-CaP tumors is on record as “delayed”. Besides, in the experiment with STAT3 [1], the “STAT3 activation (phosphorylation) in CaP cells of tumors” value is listed as “inhibitable”. Also, in the experiment on IKK, the “IKK activation (IκBα phosphorylation)” value is on record as “did not inhibit”.
In the case of `COc1c(Cl)cc2c([nH]c3cnccc32)c1NC(=O)c1cccnc1C` [ML120B, N-(6-chloro-7-methoxy-9H-β-carbolin-8-yl)-2-methylnicotinamide], in the experiment on STAT3 [2], the “STAT3 activation (phosphorylation)” value is “did not inhibit”.
